Legend:
[1] = test system: Human Acute T Lymphoblastic Leukemia Cells (Molt-4); test: Inhibition of Molt-4 cell proliferation (CellTiter luminescent viability); format: cell-based; conditions: for inhibition at 0.01 µM / inhibition at 0.5 µM: Homo sapiens, MOLT-4, 96 h, Table IH3, BCL-2 inhibitor-based, 96 hours; for inhibition at 0.01 µM: Molt-4, 10 nM, read-out: Inhibition Rate at 10 nM (%); for inhibition at 0.5 µM: Molt-4, 500 nM, read-out: Inhibition Rate at 500 nM (%); for IC50: Table IE1, CDK4/6 inhibitor-based, Molt-4, 96 hours, read-out: Inhibitory activity (IC50, nM) on tumor cell proliferation, Molt-4
[2] = test system: Human acute lymphocytic leukemia T lymphocytes cell line (CCRF-CEM); test: Inhibition of CCRF-CEM cell proliferation (CellTiter luminescent viability); format: cell-based; conditions: for inhibition at 0.01 µM / inhibition at 0.5 µM: Homo sapiens, 96 h, Table IH2, BCL-2 inhibitor-based; for inhibition at 0.01 µM: 10 nM, read-out: Inhibition Rate at 10 nM (%); for inhibition at 0.5 µM: 500 nM, read-out: Inhibition Rate at 500 nM (%); for IC50: Table IE1, CDK4/6 inhibitor-based, 96 hours, read-out: Inhibitory activity (IC50, nM) on tumor cell proliferation, CCRF-CEM
[3] = test system: Human prostate cancer cell line (NCI-H358); test: Inhibition of NCI-H358 cell proliferation (CellTiter luminescent viability); conditions: Table IH1, BCL-2 inhibitor-based, 96 hours; for inhibition at 0.01 µM: NCI-H358, 10 nM, read-out: Inhibition Rate at 10 nM (%); for inhibition at 0.5 µM: NCI-H358, 500 nM, read-out: Inhibition Rate at 500 nM (%)
Procedure: (§1) The tumor cells used herein were cultured in a cell culture medium listed in table 3 at 37 °C in an incubator with 5% CO2. Prior to experimentation, all cell lines used were correctly identified by STR profiling, and tested negative for mycoplasma contamination using a mycoplasma detection kit through routine screenings.
(§2) The IC50 values of the compounds of the present disclosure (including the compounds in Table 1, Table 2, and Examples 1-468) were determined using the CellTiter-Meiluncell Luminescent Cell Viability Assay Kit from Dalian Meilun Biotech Co., Ltd. The detailed procedure is as follows: Tumor cells were seeded in 96-well cell culture plates at the densities specified in Table 4. On the following day, the test compounds of the present disclosure were subjected to serial dilution. The dilution can be performed according to one of the following two methods: • (1) The first dilution method: The test compounds of the present disclosure (including the compounds in Table 1, Table 2, and Examples 1-468) were subjected to 5-fold serial dilutions starting from a highest concentration of 2000 μM, resulting in a total of 9 concentrations from high to low (2000, 400, 80, 16, 3.2, 0.64, 0.128, 0.0256, 0.00512 μM). Subsequently, 0.5 μL of the test compound dilution was transferred into the 96-well plate containing the cells, with each well containing 100 μL of cell culture medium. […] Into the 96-well plate, the diluted test compounds and corresponding detection reagents were added, resulting in final test compound concentrations of 500 nM and 10 nM, respectively. The experimental procedure is described below using the diluted 2 μM test compound as an example.
(§3) 0.5 μL of the aforementioned diluted compound of the present disclosure (including the compounds in Table 1, Table 2, and Examples 1-468) was added to the seeded cells in 100 μL of medium, yielding a final test compound concentration of 10 nM. After the cells were treated with the compounds of the present disclosure for a specified period, the cell viability assay reagent was added to the culture medium according to the kit's instructions to determine cell viability. […] All controls were treated using the same procedure as the compounds of the present disclosure. The growth inhibition curves for the compounds of the present disclosure were plotted using Prism GraphPad software, and the IC50 values were calculated therefrom.

BCL-2 = biological target: T1, BCL-2 (Homo sapiens, UniProt P10415); test: Western blot degradation of BCL-2; format: cell-based; conditions: Molt-4 Cell; 24 hours
T1 construct: expression of target proteins in cells; endogenous in cells
Procedure: Conventional Western blot assay was performed to evaluate the effects of the compounds of the present disclosure on the expression of target proteins in cells.
(1) Cell Seeding and Protein Harvesting: The selected cells were processed according to the cell seeding procedure and protein harvesting procedure in Table II-2.
(2) To the collected supernatant, 5×SDS sample loading buffer was added, followed by denaturation at 95 °C for 5 minutes. The denatured samples were then separated by SDS-PAGE electrophoresis on a polyacrylamide gel. Proteins were transferred to a nitrocellulose membrane (0.45 μm NC membrane), blocked with blocking buffer at room temperature for 1 hour, and subjected to antibody incubation and development procedures according to the antibody manufacturer's instructions (Cell Signaling Technology).
Half-Maximal Degradation Concentration value (the drug concentration required for degrading proteins by 50%, abbreviated as DC50) reads method: comparing the grayscale values of Western blot bands from drug-treated samples with those from blank DMSO-treated controls, and identifying the drug concentration range at which the grayscale value is half that of the DMSO-treated control bands.
DC50 values can be calculated using ImageJ software to measure grayscale values of Western blot bands from drug-treated samples. The concentration-response curve is fitted to estimate the drug concentration corresponding to half the grayscale value.
Target protein remaining (%) refers to the percentage of target protein remaining in cells after treatment with protein degrader compounds.
Calculation method for target protein remaining (%): Use ImageJ software to measure grayscale values of Western blot bands from drug (protein degrader)-treated samples. The grayscale value of drug-treated bands is divided by that of internal control protein bands, and the resulting quotient is normalized to obtain the relative percentage of remaining target protein after protein degrader treatment.
Target protein degradation rate (%)=1−target protein remaining (%).

[4] = test system: Human large cell immunoblastic lymphoma cell line SR; test: Inhibition of SR cell proliferation (CellTiter luminescent viability); format: cell-based; conditions: Table IE1, CDK4/6 inhibitor-based, 96 hours, read-out: Inhibitory activity (IC50, nM) on tumor cell proliferation, SR
Outline: (§4)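 Cells are seeded in 96-well plates, cultured at 37 °C, 5% CO2, and treated next day with 5-fold serial compound dilutions (stock series from 2000 μM; 0.5 μL into 100 μL medium). Viability is read by CellTiter-Meiluncell luminescence after the set exposure, and IC50 is taken from growth-inhibition curves.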

[5] = test system: Human myeloid monocytic leukemia cell line (MV-4-11); test: Inhibition of MV-4-11 cell proliferation (CellTiter luminescent viability); format: cell-based; conditions: for IC50: Table IE1, CDK4/6 inhibitor-based, MV-4-11, 96 hours, read-out: Inhibitory activity (IC50, nM) on tumor cell proliferation, MV-4-11
Outline: as §4

[6] = test system: Human breast cancer cell line MCF-7; test: Inhibition of MCF-7 cell proliferation (CellTiter luminescent viability); conditions: Table IE1, CDK4/6 inhibitor-based; MCF-7, 96 hours; read-out: Inhibitory activity (IC50, nM) on tumor cell proliferation, MCF-7
Procedure: as §1, §2, §3

[7] = test system: Human lung cancer cell line (H292); test: Inhibition of H292 cell proliferation (CellTiter luminescent viability); format: cell-based; conditions: NCI-H292, Table IE2, CDK4/6 inhibitor-based, 96 hours

T1 sequence (P10415 whole entry): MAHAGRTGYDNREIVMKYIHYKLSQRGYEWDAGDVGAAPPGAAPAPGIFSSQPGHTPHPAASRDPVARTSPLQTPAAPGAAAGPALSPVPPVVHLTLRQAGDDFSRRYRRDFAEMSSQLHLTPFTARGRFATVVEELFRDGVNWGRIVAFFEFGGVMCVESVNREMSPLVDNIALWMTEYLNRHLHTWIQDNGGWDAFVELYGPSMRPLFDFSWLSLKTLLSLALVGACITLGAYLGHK

Degradation of substrate protein BCL-2 (substrate protein remaining %) (BCL-2) | IC50 [4] | IC50 [5] | IC50 [2] | IC50 [6] | IC50 [1] | Structure (SMILES) | inhibition at 0.01 µM [1] | inhibition at 0.5 µM [1] | inhibition at 0.01 µM [2] | inhibition at 0.5 µM [2] | inhibition at 0.01 µM [3] | inhibition at 0.5 µM [3] | Inhibition Rate at 10 nM (%) ([5]; Table IE3, CDK4/6 inhibitor-based, MV-4-11, 10 nM, 96 hours) | Inhibition Rate at 500 nM (%) ([5]; Table IE3, CDK4/6 inhibitor-based, MV-4-11, 500 nM, 96 hours) | inhibition at 0.01 µM ([7]; H292, 10 nM, read-out: Inhibition Rate at 10 nM (%)) | inhibition at 0.5 µM ([7]; H292, 500 nM, read-out: Inhibition Rate at 500 nM (%))
A (0%≤substrate protein remaining %≤80%) | – | – | – | – | – | CC1(C)CCC(c2ccc(Cl)cc2)=C(CN2CCN(c3ccc(C(=O)NS(=O)(=O)c4ccc(N[C@H](CCN5CC6CCC5CN6Cc5ccc6c(c5)CN(N5CCC(=O)NC5=O)C6=O)CSc5ccccc5)c(S(=O)(=O)C(F)(F)F)c4)cc3)CC2)C1 (stereo partly drawn) [GT-07811, 4-(4-((4′-chloro-4,4-dimethyl-3,4,5,6-tetrahydro-[1,1′-biphenyl]-2-yl)methyl)piperazin-1-yl)-N-((4-(((2R)-4-(5-((2-(2,4-dioxotetrahydropyrimidin-1(2H)-yl)-1-oxoisoindolin-5-yl)methyl)-2,5-diazabicyclo[2.2.2]octan-2-yl)-1-(phenylthio)butan-2-yl)amino)-3-((trifluoromethyl)sulfonyl)phenyl)sulfonyl)benzamide] | 40 to 50% | 80 to 100% | 5 to 10% | 80 to 100% | 15 to 20% | 40 to 50% | – | – | – | –
A (0%≤substrate protein remaining %≤80%) | – | – | – | – | – | CC1(C)CCC(c2ccc(Cl)cc2)=C(CN2CCN(c3ccc(C(=O)NS(=O)(=O)c4ccc(N[C@H](CCN5CC6CCC5CN6Cc5ccc6c(c5)C(=O)N(N5CCC(=O)NC5=O)C6=O)CSc5ccccc5)c(S(=O)(=O)C(F)(F)F)c4)cc3)CC2)C1 (stereo partly drawn) [GT-07815, 4-(4-((4′-chloro-4,4-dimethyl-3,4,5,6-tetrahydro-[1,1′-biphenyl]-2-yl)methyl)piperazin-1-yl)-N-((4-(((2R)-4-(5-((2-(2,4-dioxotetrahydropyrimidin-1(2H)-yl)-1,3-dioxoisoindolin-5-yl)methyl)-2,5-diazabicyclo[2.2.2]octan-2-yl)-1-(phenylthio)butan-2-yl)amino)-3-((trifluoromethyl)sulfonyl)phenyl)sulfonyl)benzamide] | 5 to 10% | 80 to 100% | -5 to 0% | 50 to 60% | 15 to 20% | 30 to 40% | – | – | – | –
– | 100 to 300 nM | 10 to 50 nM | 400 to 800 nM | 100 to 300 nM | – | Cc1nc2c(F)cc(-c3nc(Nc4ccc(N5CCN(Cc6ccc7c(c6)CN(N6CCC(=O)NC6=O)C7=O)CC5)cn4)ncc3F)cc2n1C(C)C [GT-06672, 1-(5-((4-(6-((5-fluoro-4-(4-fluoro-1-isopropyl-2-methyl-1H-benzo[d]imidazol-6-yl)pyrimidin-2-yl)amino)pyridin-3-yl)piperazin-1-yl)methyl)-1-oxoisoindolin-2-yl)dihydropyrimidine-2,4 (1H,3H)-dione] | – | – | – | – | – | – | – | – | – | –
A (0%≤substrate protein remaining %≤80%) | – | – | – | – | – | CC1(C)CCC(c2ccc(Cl)cc2)=C(CN2CCN(c3ccc(C(=O)NS(=O)(=O)c4ccc(N[C@H](CCN5C[C@H]6C[C@@H]5CN6Cc5ccc6c(c5)CN(N5CCC(=O)NC5=O)C6=O)CSc5ccccc5)c(S(=O)(=O)C(F)(F)F)c4)cc3)CC2)C1 [GT-07812, 4-(4-((4′-chloro-4,4-dimethyl-3,4,5,6-tetrahydro-[1,1′-biphenyl]-2-yl)methyl)piperazin-1-yl)-N-((4-(((R)-4-((1R,4R)-5-((2-(2,4-dioxotetrahydropyrimidin-1(2H)-yl)-1-oxoisoindolin-5-yl)methyl)-2,5-diazabicyclo[2.2.1]heptan-2-yl)-1-(phenylthio)butan-2-yl)amino)-3-((trifluoromethyl)sulfonyl)phenyl)sulfonyl)benzamide] | 50 to 60% | 80 to 100% | 20 to 30% | 80 to 100% | 30 to 40% | 50 to 60% | – | – | – | –

The remaining lines, values behind:

Structure (SMILES) | Degradation of substrate protein BCL-2 (substrate protein remaining %) (BCL-2) | IC50 [4] | IC50 [5] | IC50 [2] | IC50 [6] | IC50 [1] | inhibition at 0.01 µM [1] | inhibition at 0.5 µM [1] | inhibition at 0.01 µM [2] | inhibition at 0.5 µM [2] | inhibition at 0.01 µM [3] | inhibition at 0.5 µM [3] | Inhibition Rate at 10 nM (%) ([5]; Table IE3, CDK4/6 inhibitor-based, MV-4-11, 10 nM, 96 hours) | Inhibition Rate at 500 nM (%) ([5]; Table IE3, CDK4/6 inhibitor-based, MV-4-11, 500 nM, 96 hours) | inhibition at 0.01 µM ([7]; H292, 10 nM, read-out: Inhibition Rate at 10 nM (%)) | inhibition at 0.5 µM ([7]; H292, 500 nM, read-out: Inhibition Rate at 500 nM (%))
CN(C)C(=O)c1cc2cnc(Nc3ccc(N4CCNCC4)cn3)nc2n1C1CCCC1 [Ribociclib, reference compound] | – | 5000 to 10000 nM | 5000 to 10000 nM | 1000 to 5000 nM | 1000 to 5000 nM | > 10000 nM | – | – | – | – | – | – | IEb2 (5% ≤ IEb2 < 10%) | IEb7 (30% ≤ IEb7 < 35%) | – | –
CC(=O)c1c(C)c2cnc(Nc3ccc(N4CCNCC4)cn3)nc2n(C2CCCC2)c1=O [Palbociclib, reference compound] | – | 1000 to 5000 nM | 300 to 400 nM | 1000 to 5000 nM | 1000 to 5000 nM | 1000 to 5000 nM | – | – | – | – | – | – | – | – | 10 to 15% | 25 to 30%

From patent US20260364184A1, “COMPOUND BASED ON OXOISOINDOLINYL-SUBSTITUTED TETRAHYDROPYRIMIDINE-DIONE AND USE THEREOF” (GLUETACS THERAPEUTICS (SHANGHAI) CO., LTD., priority 2023, published 2026)
